Patent US20250325711A1, “COVALENT FLUORESCENT PROBES FOR CANNABINOID RECEPTOR 2” (Hoffmann-La Roche Inc., priority 2022, published 2025)

Molecular target: hCB2R (Homo sapiens (Human), UniProt P34972)
Assay: TR-FRET hCB2R Binding Assay
Details: SNAP-tagged human CB2R HEK293-TR cell membranes, TR-FRET (HTRF) detection, nonspecific binding with 1 μM SR144528; read-out: Kd hCB2R

COc1cc(C(C)(C)CCCCCCN=[N+]=[N-])cc(OC)c1[C@H]1C=C(CNC(=O)CCCCCCOc2c(F)c(F)c3c(c2F)C2(OC3=O)c3ccc(N4CCC4)cc3[Si](C)(C)c3cc(N4CCC4)ccc32)[C@H]2C[C@@H]1C2(C)C [Example 19, N-(((1S,4S,5S)-4-(4-(8-azido-2-methyloctan-2-yl)-2,6-dimethoxyphenyl)-6,6-dimethylbicyclo[3.1.1]hept-2-en-2-yl)methyl)-7-((3,7-di(azetidin-1-yl)-4′,5′,7′-trifluoro-5,5-dimethyl-3′-oxo-3′H,5H-spiro[dibenzo[b,e]siline-10,1′-isobenzofuran]-6′-yl)oxy)heptanamide]
Kd: 2 nM
